Measurements reported in paper PMC9841523 (Journal of Medicinal Chemistry, 2022).

How the values were obtained:
[1] = tested on: p-P70S6K Thr389; assay: AlphaLISA/MSD analysis of S6K phosphorylation in MDA-MB-468 cells; format: cell-based; details: Homo sapiens, MDA-MB-468, read-out: pS6K IC50
[2] = tested on: AKT S473 phosphorylation (mTORC2); assay: AlphaLISA/MSD analysis of AKT phosphorylation in MDA-MB-468 cells; format: cell-based; details: Homo sapiens, MDA-MB-468, read-out: pAKT IC50
[3] = molecular target: T1, A2A(h) (agonist radioligand) (Homo sapiens, UniProt P29274); assay: Eurofins Safety Screen 44; format: binding; details: read-out: % Inhibition of Control Values
T1 construct: purchased ActivX Biosciences (KiNativ)

[4] = molecular target: T2, α1A(h) (antagonist radioligand) (Homo sapiens, UniProt P35348); assay: Eurofins Safety Screen 44; format: binding; details: read-out: % Inhibition of Control Values
T2 construct: purchased ActivX Biosciences (KiNativ)

[5] = molecular target: T3, α2A(h) (antagonist radioligand) (Homo sapiens, UniProt P08913); assay: Eurofins Safety Screen 44; format: binding; details: read-out: % Inhibition of Control Values
T3 construct: purchased ActivX Biosciences (KiNativ)

[6] = molecular target: T4, β2(h) (antagonist radioligand) (Homo sapiens, UniProt P07550); assay: Eurofins Safety Screen 44; format: binding; details: read-out: % Inhibition of Control Values
T4 construct: purchased ActivX Biosciences (KiNativ)
T4 sequence (P07550 whole entry): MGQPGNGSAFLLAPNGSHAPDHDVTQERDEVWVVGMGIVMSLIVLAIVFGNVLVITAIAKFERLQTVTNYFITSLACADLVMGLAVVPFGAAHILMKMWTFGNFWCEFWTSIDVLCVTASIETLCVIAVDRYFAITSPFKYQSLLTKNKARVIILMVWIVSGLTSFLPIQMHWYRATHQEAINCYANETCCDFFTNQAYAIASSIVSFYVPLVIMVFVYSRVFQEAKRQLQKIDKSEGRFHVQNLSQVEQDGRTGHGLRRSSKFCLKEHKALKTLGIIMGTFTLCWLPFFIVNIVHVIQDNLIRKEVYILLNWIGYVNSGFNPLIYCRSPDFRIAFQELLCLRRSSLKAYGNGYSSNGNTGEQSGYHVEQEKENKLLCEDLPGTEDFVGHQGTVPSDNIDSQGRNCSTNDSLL

[7] = tested on: BZD (central) (agonist radioligand); assay: Eurofins Safety Screen 44; format: binding; details: 10 µM
[8] = molecular target: T5, CB1(h) (agonist radioligand) (Homo sapiens, UniProt P21554); assay: Eurofins Safety Screen 44; format: binding; details: read-out: % Inhibition of Control Values
T5 construct: purchased ActivX Biosciences (KiNativ)

[9] = molecular target: T6, CB2(h) (agonist radioligand) (Homo sapiens, UniProt P34972); assay: Eurofins Safety Screen 44; format: binding; details: read-out: % Inhibition of Control Values
T6 construct: purchased ActivX Biosciences (KiNativ)

[10] = molecular target: T7, D1(h) (antagonist radioligand) (Homo sapiens, UniProt P21728); assay: Eurofins Safety Screen 44; format: binding; details: read-out: % Inhibition of Control Values
T7 construct: purchased ActivX Biosciences (KiNativ)
T7 sequence (P21728 whole entry): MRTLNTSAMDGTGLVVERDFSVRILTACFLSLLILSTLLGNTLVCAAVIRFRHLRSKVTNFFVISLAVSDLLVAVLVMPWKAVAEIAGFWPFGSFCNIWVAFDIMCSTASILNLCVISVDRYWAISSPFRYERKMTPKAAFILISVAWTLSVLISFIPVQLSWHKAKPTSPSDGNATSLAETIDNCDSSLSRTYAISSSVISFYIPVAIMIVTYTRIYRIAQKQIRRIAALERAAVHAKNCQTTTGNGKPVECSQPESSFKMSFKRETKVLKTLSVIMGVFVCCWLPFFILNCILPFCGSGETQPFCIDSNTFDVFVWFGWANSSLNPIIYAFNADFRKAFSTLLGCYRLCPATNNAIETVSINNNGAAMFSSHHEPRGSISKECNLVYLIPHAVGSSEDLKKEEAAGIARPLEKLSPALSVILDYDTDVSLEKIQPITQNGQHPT

[11] = molecular target: T8, D2S(h) (agonist radioligand) (Homo sapiens, UniProt P14416); assay: Eurofins Safety Screen 44; format: binding; details: read-out: % Inhibition of Control Values
T8 construct: purchased ActivX Biosciences (KiNativ)

[12] = molecular target: T9, H1(h) (antagonist radioligand) (Homo sapiens, UniProt P35367); assay: Eurofins Safety Screen 44; format: binding; details: read-out: % Inhibition of Control Values
T9 construct: purchased ActivX Biosciences (KiNativ)
T9 sequence (P35367 whole entry): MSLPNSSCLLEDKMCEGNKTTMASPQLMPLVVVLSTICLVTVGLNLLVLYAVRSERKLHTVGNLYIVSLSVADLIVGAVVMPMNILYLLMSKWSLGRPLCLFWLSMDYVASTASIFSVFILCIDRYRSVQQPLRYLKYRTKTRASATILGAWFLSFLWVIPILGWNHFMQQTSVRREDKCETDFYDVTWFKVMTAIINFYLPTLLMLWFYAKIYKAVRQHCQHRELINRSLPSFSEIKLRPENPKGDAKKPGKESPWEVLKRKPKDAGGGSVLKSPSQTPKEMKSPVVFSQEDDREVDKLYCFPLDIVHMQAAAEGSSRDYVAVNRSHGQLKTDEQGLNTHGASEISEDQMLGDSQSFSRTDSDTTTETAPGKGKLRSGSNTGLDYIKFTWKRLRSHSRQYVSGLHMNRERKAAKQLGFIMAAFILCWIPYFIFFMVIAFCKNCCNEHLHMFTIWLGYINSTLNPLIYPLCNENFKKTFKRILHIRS

[13] = molecular target: T10, H2(h) (antagonist radioligand) (Homo sapiens, UniProt P25021); assay: Eurofins Safety Screen 44; format: binding; details: read-out: % Inhibition of Control Values
T10 construct: purchased ActivX Biosciences (KiNativ)

[14] = molecular target: T11, M3(h) (antagonist radioligand) (Homo sapiens, UniProt P20309); assay: Eurofins Safety Screen 44; format: binding; details: read-out: % Inhibition of Control Values
T11 construct: purchased ActivX Biosciences (KiNativ)
T11 sequence (P20309 whole entry): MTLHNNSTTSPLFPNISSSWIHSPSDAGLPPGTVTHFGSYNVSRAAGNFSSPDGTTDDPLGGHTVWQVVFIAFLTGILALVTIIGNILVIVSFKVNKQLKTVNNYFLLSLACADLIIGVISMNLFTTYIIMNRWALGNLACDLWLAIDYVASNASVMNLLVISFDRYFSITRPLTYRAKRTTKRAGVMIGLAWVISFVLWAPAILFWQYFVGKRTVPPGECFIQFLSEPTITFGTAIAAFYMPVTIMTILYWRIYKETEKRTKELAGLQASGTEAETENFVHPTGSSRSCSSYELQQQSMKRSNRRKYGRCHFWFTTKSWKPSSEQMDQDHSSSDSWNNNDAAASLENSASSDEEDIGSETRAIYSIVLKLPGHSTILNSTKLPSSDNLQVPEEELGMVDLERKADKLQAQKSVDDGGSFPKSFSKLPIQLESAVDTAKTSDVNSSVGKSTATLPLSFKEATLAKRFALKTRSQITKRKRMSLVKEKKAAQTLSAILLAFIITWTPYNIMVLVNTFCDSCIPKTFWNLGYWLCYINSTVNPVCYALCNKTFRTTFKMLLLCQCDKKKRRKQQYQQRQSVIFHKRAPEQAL

[15] = molecular target: T12, N neuronal α4β2 (h) (agonist radioligand) (Homo sapiens, UniProt P17787+P43681); assay: Eurofins Safety Screen 44; format: binding; details: read-out: % Inhibition of Control Values
T12 construct: purchased ActivX Biosciences (KiNativ)
T12 sequence (P43681 29-627 limits assumed): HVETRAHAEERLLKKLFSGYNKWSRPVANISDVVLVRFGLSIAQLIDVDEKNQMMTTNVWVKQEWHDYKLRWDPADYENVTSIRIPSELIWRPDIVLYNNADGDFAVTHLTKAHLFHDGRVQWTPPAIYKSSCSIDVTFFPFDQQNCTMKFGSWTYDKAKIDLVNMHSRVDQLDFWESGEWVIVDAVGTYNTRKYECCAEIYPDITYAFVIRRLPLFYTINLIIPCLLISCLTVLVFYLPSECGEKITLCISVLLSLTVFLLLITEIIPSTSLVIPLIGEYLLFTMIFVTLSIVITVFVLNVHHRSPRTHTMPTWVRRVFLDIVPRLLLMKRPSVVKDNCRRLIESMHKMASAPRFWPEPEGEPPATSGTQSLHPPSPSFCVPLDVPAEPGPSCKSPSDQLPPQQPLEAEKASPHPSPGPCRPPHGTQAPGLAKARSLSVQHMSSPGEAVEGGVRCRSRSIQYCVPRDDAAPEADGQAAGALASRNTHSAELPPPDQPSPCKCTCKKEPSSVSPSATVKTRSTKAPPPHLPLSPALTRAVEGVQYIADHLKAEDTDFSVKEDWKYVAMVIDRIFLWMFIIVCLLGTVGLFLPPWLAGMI
T12 sequence (P17787 26-502): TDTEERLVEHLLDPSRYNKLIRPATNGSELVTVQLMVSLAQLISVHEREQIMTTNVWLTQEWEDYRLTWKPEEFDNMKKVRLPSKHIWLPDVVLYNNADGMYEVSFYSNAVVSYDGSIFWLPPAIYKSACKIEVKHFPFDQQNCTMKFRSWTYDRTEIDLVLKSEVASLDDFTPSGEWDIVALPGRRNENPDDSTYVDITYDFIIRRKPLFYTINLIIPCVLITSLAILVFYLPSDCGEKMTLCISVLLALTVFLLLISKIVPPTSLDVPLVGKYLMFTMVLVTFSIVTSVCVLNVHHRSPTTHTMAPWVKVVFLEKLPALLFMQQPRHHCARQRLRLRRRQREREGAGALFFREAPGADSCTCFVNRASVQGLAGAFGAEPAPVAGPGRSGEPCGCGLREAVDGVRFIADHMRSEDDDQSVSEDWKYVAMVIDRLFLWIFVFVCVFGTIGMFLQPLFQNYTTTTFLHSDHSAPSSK

[16] = molecular target: T13, δ (DOP) (h) (agonist radioligand) (Homo sapiens, UniProt P41143); assay: Eurofins Safety Screen 44; format: binding; details: read-out: % Inhibition of Control Values
T13 construct: purchased ActivX Biosciences (KiNativ)
T13 sequence (P41143 whole entry): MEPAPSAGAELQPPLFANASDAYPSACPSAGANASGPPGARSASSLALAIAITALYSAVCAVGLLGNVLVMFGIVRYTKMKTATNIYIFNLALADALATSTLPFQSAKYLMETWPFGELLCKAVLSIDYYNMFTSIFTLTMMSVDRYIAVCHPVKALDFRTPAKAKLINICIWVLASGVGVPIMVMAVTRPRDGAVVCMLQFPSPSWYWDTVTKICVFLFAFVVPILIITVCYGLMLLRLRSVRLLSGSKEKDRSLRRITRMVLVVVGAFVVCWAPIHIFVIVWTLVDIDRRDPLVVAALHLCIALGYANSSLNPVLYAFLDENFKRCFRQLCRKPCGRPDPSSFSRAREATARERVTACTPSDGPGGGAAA

[17] = molecular target: T14, μ (MOP) (h) (agonist radioligand) (Homo sapiens, UniProt P35372); assay: Eurofins Safety Screen 44; format: binding; details: read-out: % Inhibition of Control Values
T14 construct: purchased ActivX Biosciences (KiNativ)
T14 sequence (P35372 whole entry): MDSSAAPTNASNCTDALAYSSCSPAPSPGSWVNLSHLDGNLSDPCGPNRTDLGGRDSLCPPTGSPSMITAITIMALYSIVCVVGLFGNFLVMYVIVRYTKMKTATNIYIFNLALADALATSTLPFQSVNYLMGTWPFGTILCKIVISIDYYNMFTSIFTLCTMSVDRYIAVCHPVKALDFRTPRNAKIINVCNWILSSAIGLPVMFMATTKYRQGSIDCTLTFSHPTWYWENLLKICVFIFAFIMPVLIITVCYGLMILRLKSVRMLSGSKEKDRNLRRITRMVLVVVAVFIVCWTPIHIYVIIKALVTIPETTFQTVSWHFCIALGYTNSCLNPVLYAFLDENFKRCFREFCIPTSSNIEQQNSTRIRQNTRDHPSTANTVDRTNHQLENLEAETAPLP

[18] = molecular target: T15, 5-HT1A(h) (agonist radioligand) (Homo sapiens, UniProt P08908); assay: Eurofins Safety Screen 44; format: binding; details: read-out: % Inhibition of Control Values
T15 construct: purchased ActivX Biosciences (KiNativ)

[19] = molecular target: T16, 5-HT1B (h) (antagonist radioligand) (Homo sapiens, UniProt P28222); assay: Eurofins Safety Screen 44; format: binding; details: read-out: % Inhibition of Control Values
T16 construct: purchased ActivX Biosciences (KiNativ)
T16 sequence (P28222 whole entry): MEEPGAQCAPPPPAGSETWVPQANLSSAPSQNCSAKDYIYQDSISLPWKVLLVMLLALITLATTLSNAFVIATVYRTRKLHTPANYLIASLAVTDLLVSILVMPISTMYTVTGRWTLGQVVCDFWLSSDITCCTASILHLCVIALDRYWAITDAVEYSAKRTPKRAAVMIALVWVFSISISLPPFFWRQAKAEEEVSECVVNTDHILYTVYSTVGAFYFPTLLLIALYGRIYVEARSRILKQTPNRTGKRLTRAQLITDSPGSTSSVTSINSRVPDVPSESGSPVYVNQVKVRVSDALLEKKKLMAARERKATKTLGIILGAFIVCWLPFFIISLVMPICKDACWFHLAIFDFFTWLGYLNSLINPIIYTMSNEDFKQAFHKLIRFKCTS

[20] = molecular target: T17, 5-HT2B(h) (agonist radioligand) (Homo sapiens, UniProt P41595); assay: Eurofins Safety Screen 44; format: binding; details: read-out: % Inhibition of Control Values
T17 construct: purchased ActivX Biosciences (KiNativ)

[21] = molecular target: T18, 5-HT3(h) (antagonist radioligand) (Homo sapiens, UniProt P46098); assay: Eurofins Safety Screen 44; format: binding; details: read-out: % Inhibition of Control Values
T18 construct: purchased ActivX Biosciences (KiNativ)

[22] = tested on: AR (h) (agonist radioligand); assay: Eurofins Safety Screen 44; format: binding, human; details: 10 µM
[23] = tested on: Ca2+ channel (L, dihydropyridine site) (antagonist radioligand); assay: Eurofins Safety Screen 44; format: binding; details: 10 µM
[24] = tested on: KV channel (antagonist radioligand); assay: Eurofins Safety Screen 44; format: binding; details: 10 µM
[25] = tested on: Na+ channel (site 2) (antagonist radioligand); assay: Eurofins Safety Screen 44; format: binding; details: 10 µM
[26] = molecular target: T19, COX2(h) (Homo sapiens, UniProt P35354); assay: Eurofins Safety Screen 44; format: biochemical; details: read-out: % Inhibition of Control Values
T19 construct: Eurofins (ran the panel)
T19 sequence (P35354 18-604): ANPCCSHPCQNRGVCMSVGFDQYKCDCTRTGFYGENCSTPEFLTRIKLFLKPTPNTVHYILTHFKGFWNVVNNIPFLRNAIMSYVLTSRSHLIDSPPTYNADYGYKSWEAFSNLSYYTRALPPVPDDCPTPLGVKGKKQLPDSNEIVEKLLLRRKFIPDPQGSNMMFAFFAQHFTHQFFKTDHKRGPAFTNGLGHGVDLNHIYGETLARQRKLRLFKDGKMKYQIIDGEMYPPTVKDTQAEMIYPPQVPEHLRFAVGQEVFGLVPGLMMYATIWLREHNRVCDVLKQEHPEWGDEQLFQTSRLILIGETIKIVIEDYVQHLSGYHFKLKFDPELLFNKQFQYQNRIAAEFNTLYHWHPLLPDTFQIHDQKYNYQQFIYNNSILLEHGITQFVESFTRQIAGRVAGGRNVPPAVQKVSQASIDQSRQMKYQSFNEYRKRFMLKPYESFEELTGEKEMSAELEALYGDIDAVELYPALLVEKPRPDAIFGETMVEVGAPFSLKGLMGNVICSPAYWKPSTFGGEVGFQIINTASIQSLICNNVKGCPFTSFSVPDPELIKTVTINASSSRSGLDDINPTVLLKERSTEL

[27] = molecular target: T20, PDE4D2 (h) (Homo sapiens, UniProt Q08499); assay: Eurofins Safety Screen 44; format: biochemical; details: read-out: % Inhibition of Control Values
T20 construct: Eurofins (ran the panel)

[28] = molecular target: T21, acetylcholinesterase (h) (Homo sapiens, UniProt P22303); assay: Eurofins Safety Screen 44; format: biochemical; details: read-out: % Inhibition of Control Values
T21 construct: Eurofins (ran the panel)

[29] = tested on: Safety Screen 44 off-targets; assay: Eurofins Safety Screen 44, whole panel; details: 10 µM
[30] = tested on: ROCK1, ROCK2; assay: KiNativ kinase panel; format: cell-based, human; details: 1 μM; MCF-7 Cells; Lys1; VYAMKLLSK
[31] = tested on: RSK1 domain1, RSK2 domain1, RSK3 domain1; assay: KiNativ kinase panel; format: cell-based, human; details: 1 μM; MCF-7 Cells; Lys2; DLKPENILLDEEGHIK
[32] = tested on: Wnk1, Wnk2, Wnk3; assay: KiNativ kinase panel; format: cell-based, human; details: 1 μM; MCF-7 Cells; Lys2; DLKCDNIFITGPTGSVK

CO[C@H]1C[C@@H]2CC[C@@H](C)[C@@](O)(O2)C(=O)C(=O)N2CCCC[C@H]2C(=O)O[C@H]([C@H](C)C[C@@H]2CC[C@@H](OC(=O)NCCOCCOCCOCCOCCOCCOCCOCCOCCC(=O)N3CCc4cc(Cn5nc(-c6ccc7oc(N)nc7c6)c6c(N)ncnc65)ccc4C3)[C@H](OC)C2)C[C@@H](O)[C@H](C)/C=C(\C)[C@@H](O)[C@@H](OC)C(=O)[C@H](C)C[C@H](C)/C=C/C=C/C=C/1C [compound 38]
IC50 [1]: 0.14 nM
IC50 [2]: 19 nM
inhibition at 10 µM [3]: -4.5%
inhibition at 10 µM [4]: 0.6%
inhibition at 10 µM [5]: -2.1%
inhibition at 10 µM [6]: -3.3%
% Inhibition of Control Values [7]: 3.3%
inhibition at 10 µM [8]: -26.1%
inhibition at 10 µM [9]: 0.6%
inhibition at 10 µM [10]: -0.5%
inhibition at 10 µM [11]: 12.2%
inhibition at 10 µM [12]: -12.6%
inhibition at 10 µM [13]: -1.1%
inhibition at 10 µM [14]: -14.3%
inhibition at 10 µM [15]: -8.5%
inhibition at 10 µM [16]: 11.6%
inhibition at 10 µM [17]: 10.3%
inhibition at 10 µM [18]: -9.4%
inhibition at 10 µM [19]: 13.1%
inhibition at 10 µM [20]: -14.5%
inhibition at 10 µM [21]: -4.6%
% Inhibition of Control Values [22]: -14.9%
% Inhibition of Control Values [23]: -45.0%
% Inhibition of Control Values [24]: -8.0%
% Inhibition of Control Values [25]: 1.0%
inhibition at 10 µM [26]: 4.4%
inhibition at 10 µM [27]: -45.6%
inhibition at 10 µM [28]: -15.4%
Eurofins Safety Screen 44 inhibition [29]: <5% inhibition (low promiscuity)
Eurofins Safety Screen 44 result [29]: no significant inhibition

CO[C@H]1C[C@@H]2CC[C@@H](C)[C@@](O)(O2)C(=O)C(=O)N2CCCC[C@H]2C(=O)O[C@H]([C@H](C)C[C@@H]2CC[C@@H](OC(=O)NCCOCCOCCOCCOCCOCCOCCOCCOCCC(=O)NCCS(=O)(=O)c3ccc(C(=O)N4CCOc5ccc(-c6ccc(N)nc6)cc5C4)c(C)c3F)[C@H](OC)C2)C[C@@H](O)[C@H](C)/C=C(\C)[C@@H](O)[C@@H](OC)C(=O)[C@H](C)C[C@H](C)/C=C/C=C/C=C/1C [compound 40]
KiNativ Kinase Panel Data [30]: -42.0
KiNativ Kinase Panel Data [31]: 27.4
KiNativ Kinase Panel Data [32]: -40.3
